Measured values: PubChem BioAssay AID1963444 (Molecular Pharmacology Branch, DTP, NCI, 2024)

System: HSSY-II complex spheroid growth, percent test/control
Assay: Anticancer human tumor HSSY-II cell line growth inhibition [Asc];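 further: spheroids exposed to drug for 7 days before reading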
Conditions: for IC50: curve of first compound; for viability, T/C: stronger effect = lower value
How it was run: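 Tumor cells were grown as complex spheroids with human endothelial cells (HUVEC) and human mesenchymal stem cells as stroma. Agents were tested alone and in combination, in half-log steps down from the clinical Cmax, or from 10 microM where Cmax was unknown.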

[1] = second compound 0.01 µM, first compound 0.00316 µM
[2] = second compound 0.01 µM, first compound 0.01 µM
[3] = second compound 0.01 µM, first compound 0.0316 µM
[4] = second compound 0.01 µM, first compound 0.1 µM
[5] = second compound 0.01 µM, first compound 0.316 µM
[6] = second compound 0.01 µM, first compound 1 µM
[7] = second compound 0.0316 µM, first compound 0.00316 µM
[8] = second compound 0.0316 µM, first compound 0.01 µM
[9] = second compound 0.0316 µM, first compound 0.0316 µM
[10] = second compound 0.0316 µM, first compound 0.1 µM
[11] = second compound 0.0316 µM, first compound 0.316 µM
[12] = second compound 0.0316 µM, first compound 1 µM
[13] = second compound 0.1 µM, first compound 0.00316 µM
[14] = second compound 0.1 µM, first compound 0.01 µM
[15] = second compound 0.1 µM, first compound 0.0316 µM
[16] = second compound 0.1 µM, first compound 0.1 µM
[17] = second compound 0.1 µM, first compound 0.316 µM
[18] = second compound 0.1 µM, first compound 1 µM
[19] = second compound 0.316 µM, first compound 0.00316 µM
[20] = second compound 0.316 µM, first compound 0.01 µM
[21] = second compound 0.316 µM, first compound 0.0316 µM
[22] = second compound 0.316 µM, first compound 0.1 µM
[23] = second compound 0.316 µM, first compound 0.316 µM
[24] = second compound 0.316 µM, first compound 1 µM
[25] = second compound 1 µM, first compound 0.00316 µM
[26] = second compound 1 µM, first compound 0.01 µM
[27] = second compound 1 µM, first compound 0.0316 µM
[28] = second compound 1 µM, first compound 0.1 µM
[29] = second compound 1 µM, first compound 0.316 µM
[30] = second compound 1 µM, first compound 1 µM

With `CCN1CCN(Cc2ccc(Nc3ncc(F)c(-c4cc(F)c5nc(C)n(C(C)C)c5c4)n3)nc2)CC1` + CNC(C)C(=O)NC1CN(S(=O)(=O)c2cccc(S(=O)(=O)N3CCC4CCC(C(=O)NC(c5ccccc5)c5ccccc5)N4C(=O)C(NC(=O)C(C)NC)C3)c2)CCC2CCC(C(=O)NC(c3ccccc3)c3ccccc3)N2C1=O the IC50 (second compound 0.01 µM) was 0.12 µM, the IC50 (second compound 0.0316 µM) was 0.15 µM and the IC50 (second compound 0.1 µM) was 0.111 µM. The IC50 (second compound 0.316 µM) was 0.0875 µM, the IC50 (second compound 1 µM) was 0.096 µM and the viability, T/C [1] was 95.3%. For the same molecule, the viability, T/C [2] was 92.5%, the viability, T/C [3] was 60.6% and the viability, T/C [4] was 54.2%. The viability, T/C [5] was 39.9%, the viability, T/C [6] was 23.2% and the viability, T/C [7] was 78.1%. It also gave a viability, T/C [8] of 83.9%, a viability, T/C [9] of 66.7% and a viability, T/C [10] of 53.2%. The viability, T/C [11] was 42.3%, the viability, T/C [12] was 23.4% and the viability, T/C [13] was 68.5%. It also gave a viability, T/C [14] of 78.3%, a viability, T/C [15] of 59.1% and a viability, T/C [16] of 51.5%. The viability, T/C [17] was 37.4%, the viability, T/C [18] was 24.1% and the viability, T/C [19] was 86.5%. The viability, T/C [20] was 89%, the viability, T/C [21] was 68.9% and the viability, T/C [22] was 45.2%. The viability, T/C [23] was 37.6%, the viability, T/C [24] was 23.9% and the viability, T/C [25] was 88%. The viability, T/C [26] was 76.8%, the viability, T/C [27] was 66.9% and the viability, T/C [28] was 46.7%. It also gave a viability, T/C [29] of 35.4% and a viability, T/C [30] of 18.8%.

In the case of `Cn1ncnc1[C@H]1c2n[nH]c(=O)c3cc(F)cc(c23)N[C@@H]1c1ccc(F)cc1` + CNC(C)C(=O)NC1CN(S(=O)(=O)c2cccc(S(=O)(=O)N3CCC4CCC(C(=O)NC(c5ccccc5)c5ccccc5)N4C(=O)C(NC(=O)C(C)NC)C3)c2)CCC2CCC(C(=O)NC(c3ccccc3)c3ccccc3)N2C1=O, the IC50 (second compound 0.01 µM) is reported as > 0.1 µM, the IC50 (second compound 0.0316 µM) is reported as 0.0225 µM and the IC50 (second compound 0.1 µM) is reported as 0.0243 µM. It also gave an IC50 (second compound 0.316 µM) of 0.0153 µM, an IC50 (second compound 1 µM) of 0.0825 µM and a viability, T/C (second compound 0.01 µM, first compound 0.000316 µM) of 86.3%. For the same molecule, the viability, T/C (second compound 0.01 µM, first compound 0.001 µM) was 86%, the viability, T/C [1] was 87.1% and the viability, T/C [2] was 59.3%. For the same molecule, the viability, T/C [3] was 43.4%, the viability, T/C [4] was 59.6% and the viability, T/C (second compound 0.0316 µM, first compound 0.000316 µM) was 91.1%. The viability, T/C (second compound 0.0316 µM, first compound 0.001 µM) was 93.2%, the viability, T/C [7] was 80.8% and the viability, T/C [8] was 60.7%. For the same molecule, the viability, T/C [9] was 36.8%, the viability, T/C [10] was 53.4% and the viability, T/C (second compound 0.1 µM, first compound 0.000316 µM) was 82.9%. It also gave a viability, T/C (second compound 0.1 µM, first compound 0.001 µM) of 67.6%, a viability, T/C [13] of 76.1% and a viability, T/C [14] of 58.3%. The viability, T/C [15] was 39.6%, the viability, T/C [16] was 55.4% and the viability, T/C (second compound 0.316 µM, first compound 0.000316 µM) was 93.8%. For the same molecule, the viability, T/C (second compound 0.316 µM, first compound 0.001 µM) was 92.5%, the viability, T/C [19] was 80.1% and the viability, T/C [20] was 53%. For the same molecule, the viability, T/C [21] was 37.7%, the viability, T/C [22] was 54.4% and the viability, T/C (second compound 1 µM, first compound 0.000316 µM) was 89.6%. The viability, T/C (second compound 1 µM, first compound 0.001 µM) was 84.5%, the viability, T/C [25] was 82% and the viability, T/C [26] was 72.2%. It also gave a viability, T/C [27] of 56.4% and a viability, T/C [28] of 48.9%.

Work on `O=C(c1cc(Cc2n[nH]c(=O)c3ccccc23)ccc1F)N1CCN(C(=O)C2CC2)CC1` + CNC(C)C(=O)NC1CN(S(=O)(=O)c2cccc(S(=O)(=O)N3CCC4CCC(C(=O)NC(c5ccccc5)c5ccccc5)N4C(=O)C(NC(=O)C(C)NC)C3)c2)CCC2CCC(C(=O)NC(c3ccccc3)c3ccccc3)N2C1=O yielded an IC50 (second compound 0.01 µM) of 2.65 µM, an IC50 (second compound 0.0316 µM) of 3.38 µM and an IC50 (second compound 0.1 µM) of 3.03 µM. The IC50 (second compound 0.316 µM) was 3.22 µM, the IC50 (second compound 1 µM) was 2.32 µM and the viability, T/C [3] was 89%. It also gave a viability, T/C [4] of 102%, a viability, T/C [5] of 91.5% and a viability, T/C [6] of 83.5%. It also gave a viability, T/C (second compound 0.01 µM, first compound 3.16 µM) of 43.9%, a viability, T/C (second compound 0.01 µM, first compound 10 µM) of 11.6% and a viability, T/C [9] of 86.3%. The viability, T/C [10] was 88.3%, the viability, T/C [11] was 87.4% and the viability, T/C [12] was 73.3%. It also gave a viability, T/C (second compound 0.0316 µM, first compound 3.16 µM) of 53.3%, a viability, T/C (second compound 0.0316 µM, first compound 10 µM) of 7.19% and a viability, T/C [15] of 74.5%. For the same molecule, the viability, T/C [16] was 81.9%, the viability, T/C [17] was 64.6% and the viability, T/C [18] was 73.8%. For the same molecule, the viability, T/C (second compound 0.1 µM, first compound 3.16 µM) was 49.1%, the viability, T/C (second compound 0.1 µM, first compound 10 µM) was 10.6% and the viability, T/C [21] was 95.1%. For the same molecule, the viability, T/C [22] was 90.6%, the viability, T/C [23] was 86.9% and the viability, T/C [24] was 67.3%. The viability, T/C (second compound 0.316 µM, first compound 3.16 µM) was 54.7%, the viability, T/C (second compound 0.316 µM, first compound 10 µM) was 9.27% and the viability, T/C [27] was 95.3%. The viability, T/C [28] was 96.2%, the viability, T/C [29] was 83% and the viability, T/C [30] was 72%. The viability, T/C (second compound 1 µM, first compound 3.16 µM) was 42% and the viability, T/C (second compound 1 µM, first compound 10 µM) was 5.51%.

`O=C(c1ccc(F)c(F)c1Nc1ccc(I)cc1F)N1CC(O)([C@@H]2CCCCN2)C1` + CNC(C)C(=O)NC1CN(S(=O)(=O)c2cccc(S(=O)(=O)N3CCC4CCC(C(=O)NC(c5ccccc5)c5ccccc5)N4C(=O)C(NC(=O)C(C)NC)C3)c2)CCC2CCC(C(=O)NC(c3ccccc3)c3ccccc3)N2C1=O gave an IC50 (second compound 0.01 µM) of 0.587 µM, an IC50 (second compound 0.0316 µM) of 0.516 µM and an IC50 (second compound 0.1 µM) of 0.472 µM. It also gave an IC50 (second compound 0.316 µM) of 0.416 µM, an IC50 (second compound 1 µM) of 0.515 µM and a viability, T/C [1] of 76.6%. The viability, T/C [2] was 87.8%, the viability, T/C [3] was 112% and the viability, T/C [4] was 108%. The viability, T/C [5] was 82.2%, the viability, T/C [6] was 22.4% and the viability, T/C [7] was 95.7%. The viability, T/C [8] was 99.8%, the viability, T/C [9] was 99.2% and the viability, T/C [10] was 107%. It also gave a viability, T/C [11] of 69%, a viability, T/C [12] of 24.4% and a viability, T/C [13] of 93%. It also gave a viability, T/C [14] of 74.1%, a viability, T/C [15] of 98.9% and a viability, T/C [16] of 99.8%. The viability, T/C [17] was 65.8%, the viability, T/C [18] was 20.6% and the viability, T/C [19] was 98.9%. It also gave a viability, T/C [20] of 100%, a viability, T/C [21] of 83.1% and a viability, T/C [22] of 111%. For the same molecule, the viability, T/C [23] was 59.2%, the viability, T/C [24] was 20.4% and the viability, T/C [25] was 98.3%. For the same molecule, the viability, T/C [26] was 114%, the viability, T/C [27] was 99.7% and the viability, T/C [28] was 95.1%. The viability, T/C [29] was 70.7% and the viability, T/C [30] was 21.9%.
